Patent publication US20250388565A1, “ESTROGEN RECEPTOR ALPHA DEGRADERS AND METHODS OF USE THEREOF” (Relay Therapeutics, Inc., priority 2022, published 2025)

What follows are molecules tested against T1, ERα protein (HiBiT-tagged) in ESR1_HiBiT KI MCF7 cells (Homo sapiens, UniProt P03372) (assay: Nano Glo HiBiT Lytic Degradation Assay). Conditions: 6 hours with compound, 14-point dose response 1:3, bell-shape curve fit, half-maximal effect of first Hill model, read-out: MCF7 ESR1 HiBiT - (DC50).
T1 sequence (P03372 1-595): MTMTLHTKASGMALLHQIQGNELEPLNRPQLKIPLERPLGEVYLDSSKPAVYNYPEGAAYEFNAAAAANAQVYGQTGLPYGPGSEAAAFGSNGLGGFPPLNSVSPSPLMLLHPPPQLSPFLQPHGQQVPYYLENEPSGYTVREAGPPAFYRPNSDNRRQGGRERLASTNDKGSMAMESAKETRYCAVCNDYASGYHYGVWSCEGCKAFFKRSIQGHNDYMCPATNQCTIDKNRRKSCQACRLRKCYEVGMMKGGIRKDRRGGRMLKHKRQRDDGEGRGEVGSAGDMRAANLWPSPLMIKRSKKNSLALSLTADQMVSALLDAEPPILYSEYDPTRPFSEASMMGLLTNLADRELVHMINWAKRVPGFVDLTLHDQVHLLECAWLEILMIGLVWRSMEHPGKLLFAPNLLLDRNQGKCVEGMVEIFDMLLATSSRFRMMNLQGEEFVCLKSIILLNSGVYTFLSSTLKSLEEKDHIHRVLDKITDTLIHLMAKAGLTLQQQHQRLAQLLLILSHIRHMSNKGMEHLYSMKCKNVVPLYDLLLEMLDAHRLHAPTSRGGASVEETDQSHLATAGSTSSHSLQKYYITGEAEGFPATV
Format: cell-based
Outline: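 HiBiT-tagged endogenous ERα remaining in MCF7 knock-in cells was quantified by lytic luminescence after a 6 h treatment. DC50 values derive from a bell-shaped curve, taken at the first Hill component's half-maximal effect.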

DC50 [nM] | Structure (SMILES)
5 | C[C@]1(c2ccccc2)OCc2cc(O)ccc2[C@@H]1c1ccc(N2CCC(CN3CCN(c4ccc5c(c4)CN([C@H]4CCC(=O)NC4=O)C5=O)CC3)CC2)cc1 (single isomer, unassigned) [Compound I-345, (S)-3-(5-(4-((1-(4-((3*S,4*S)-7-hydroxy-3-methyl-3-phenylisochroman-4-yl)phenyl)piperidin-4-yl)methyl)piperazin-1-yl)-1-oxoisoindolin-2-yl)piperidine-2,6-dione]
45.8 | CC1(C)CCC([C@H]2CCc3cc(O)ccc3[C@H]2c2ccc(N3CCC(CN4CCN(c5ccc6c(c5)CN([C@H]5CCC(=O)NC5=O)C6=O)CC4)CC3)cc2)CC1 (single isomer, unassigned) [Compound I-105]
245 | O=C1CC[C@H](N2Cc3cc(N4CCN(CC5CCN(c6ccc([C@@H]7c8ccc(O)cc8CC[C@@H]7c7ccccc7F)cc6)CC5)CC4)ccc3C2=O)C(=O)N1 (single isomer, unassigned) [II-24]
≥ 10000 | O=C1CC[C@H](N2Cc3cc(N4C[C@@H]5C[C@H]4CN5CC4CCN(c5ccc([C@H]6c7ccc(O)cc7CC[C@H]6c6ccccc6)cc5)CC4)ccc3C2=O)C(=O)N1 [II-8]
0.19 | O=C1CC[C@H](N2Cc3cc(N4CCN(CC5CCN(c6ccc([C@@H]7c8ccc(O)cc8CC[C@@H]7C7=CCCCC7)cc6)CC5)CC4)ccc3C2=O)C(=O)N1 (single isomer, unassigned) [Compound I-407]
742 | O=C1CCC(N2Cc3cc(N4CCN(CC5CCN(c6ccc([C@@H]7c8ccc(O)cc8CC[C@@H]7C7CCC(F)(F)CC7)cc6)CC5)CC4)ccc3C2=O)C(=O)N1 (single isomer, unassigned) [Compound I-54]
370 | O=C1CC[C@H](N2Cc3cc(N4CCN(CC5CCN(c6ccc([C@H]7c8ccc(O)cc8CC[C@H]7C78CC9CC(CC(C9)C7)C8)cc6)CC5)CC4)ccc3C2=O)C(=O)N1 [Compound I-241, (S)-3-(5-(4-((1-(4-((1S,2R)-2-((3S,5S,7S)-adamantan-1-yl)-6-hydroxy-1,2,3,4-tetrahydronaphthalen-1-yl)phenyl)piperidin-4-yl)methyl)piperazin-1-yl)-1-oxoisoindolin-2-yl)piperidine-2,6-dione]
27 | Cc1cc(F)ccc1[C@@H]1OCc2cc(O)ccc2[C@@H]1c1ccc(N2CCC(CN3CCN(c4ccc5c(c4)CN([C@H]4CCC(=O)NC4=O)C5=O)CC3)CC2)cc1 [Compound I-372, (S)-3-(5-(4-((1-(4-((3R,4S)-3-(4-fluoro-2-methylphenyl)-7-hydroxyisochroman-4-yl)phenyl)piperidin-4-yl)methyl)piperazin-1-yl)-1-oxoisoindolin-2-yl)piperidine-2,6-dione]
≥ 10000 | C[C@@H]1OC2(CCCCC2)[C@@H](c2ccc(N3CCC(CN4CCN(c5ccc6c(c5)CN([C@H]5CCC(=O)NC5=O)C6=O)CC4)CC3)cc2)c2ccc(O)cc21 (single isomer, unassigned) [Compound I-270]
3 | O=C1CC[C@H](N2Cc3cc(N4CCN(CC5CCN(c6ccc([C@@H]7c8ccc(O)cc8CC[C@@H]7CC7CCCC7)cc6)CC5)CC4)ccc3C2=O)C(=O)N1 [Compound I-121, (S)-3-(5-(4-((1-(4-((1R,2R)-2-(cyclopentylmethyl)-6-hydroxy-1,2,3,4-tetrahydronaphthalen-1-yl)phenyl)piperidin-4-yl)methyl)piperazin-1-yl)-1-oxoisoindolin-2-yl)piperidine-2,6-dione]
2 | O=C1CC[C@H](N2Cc3cc(N4CCN(CC5CCN(c6ccc([C@@H]7c8ccc(O)cc8CC[C@]78CCc7ccccc78)cc6)CC5)CC4)ccc3C2=O)C(=O)N1 [Compound I-262, (S)-3-(5-(4-((1-(4-((1R,1′S)-6′-hydroxy-2,3,3′,4′-tetrahydro-1′H-spiro[indene-1,2′-naphthalen]-1′-yl)phenyl)piperidin-4-yl)methyl)piperazin-1-yl)-1-oxoisoindolin-2-yl)piperidine-2,6-dione]
≥ 10000 | O=C1CC[C@H](N2Cc3cc(N4CCN(CC5CCN(c6cc(F)c([C@H]7c8ccc(O)cc8CC[C@H]7c7ccccc7)c(F)c6)CC5)CC4)ccc3C2=O)C(=O)N1 [II-103]
1 | O=C1CCC(n2cc3cc(N4CCN(CC5CCN(c6ccc([C@@H]7c8ccc(O)cc8CC[C@@H]7c7ccccc7)cc6)CC5)CC4)ccc3n2)C(=O)N1 (stereo partly shown) [Compound I-301]
2.82 | O=C1CCC(N2Cc3cc([C@@H]4CCN(CC5CCN(c6ccc([C@@H]7c8ccc(O)cc8CC[C@@H]7c7ccccc7)cc6)CC5)C[C@H]4O)ccc3C2=O)C(=O)N1 (single isomer, unassigned) [II-106]
≥ 10000 | O=C1CC[C@H](N2Cc3cc(N4CCN(CC5CCN(c6ccc([C@H]7c8ccc(O)cc8COC78CCCCC8)cc6)CC5)CC4)ccc3C2=O)C(=O)N1 [Compound I-122, (S)-3-(5-(4-((1-(4-((S)-7′-hydroxyspiro[cyclohexane-1,3′-isochroman]-4′-yl)phenyl)piperidin-4-yl)methyl)piperazin-1-yl)-1-oxoisoindolin-2-yl)piperidine-2,6-dione]
≥ 10000 | COc1cc(N2CCC(CN3CCN(c4ccc5c(c4)CN([C@H]4CCC(=O)NC4=O)C5=O)CC3)CC2)ccc1[C@H]1c2ccc(O)cc2CC[C@H]1c1ccccc1 [Compound I-143, (S)-3-(5-(4-((1-(4-((1R,2R)-6-hydroxy-2-phenyl-1,2,3,4-tetrahydronaphthalen-1-yl)-3-methoxyphenyl)piperidin-4-yl)methyl)piperazin-1-yl)-1-oxoisoindolin-2-yl)piperidine-2,6-dione]
1 | O=C1CCC(N2Cc3cc(N4CCN(CC5CCN(c6ccc([C@@H]7c8ccc(O)cc8CC[C@@H]7c7ccccc7)cc6)CC5)CC4)c(F)cc3C2=O)C(=O)N1 (single isomer, unassigned) [II-38]
0.42 | O=C1CCN(c2ccc(N3CCC4(CCN(CC5CCN(c6ccc([C@@H]7c8ccc(O)cc8CO[C@@H]7c7ccccc7)cc6)CC5)C4)CC3)cc2)C(=O)N1 [Compound I-391, 1-(4-(2-((1-(4-((3S,4R)-7-hydroxy-3-phenylisochroman-4-yl)phenyl)piperidin-4-yl)methyl)-2,8-diazaspiro[4.5]decan-8-yl)phenyl)dihydropyrimidine-2,4 (1H,3H)-dione]
1 | O=C1CC[C@H](N2Cc3cc(N4CCN(CC5CCN(c6ccc(C7c8ccc(O)cc8CCC7C7CCCCC7)cn6)CC5)CC4)ccc3C2=O)C(=O)N1 (stereo in doubt) [Compound I-155, (S)-3-(5-(4-((1-(5-((1R,2S)-2-cyclohexyl-6-hydroxy-1,2,3,4-tetrahydronaphthalen-1-yl)pyridin-2-yl)piperidin-4-yl)methyl)piperazin-1-yl)-1-oxoisoindolin-2-yl)piperidine-2,6-dione]
0.74 | Cn1nc(C2CCC(=O)NC2=O)c2ccc(N3CCN(CC4CCN(c5ccc([C@@H]6c7ccc(O)cc7C(F)(F)C[C@@H]6c6ccccc6)cc5)CC4)CC3)cc21 (single isomer, unassigned) [Compound I-297]
2 | O=C1CC[C@H](N2Cc3cc(N4CCN(CC5CCN(c6ccc([C@@H]7c8ccc(O)cc8C(F)(F)C[C@@H]7CC7CCCC7)cc6)CC5)CC4)ccc3C2=O)C(=O)N1 [Compound I-196, (3S)-3-[5-[4-[[1-[4-[(1R,2S)-2-(cyclopentylmethyl)-4,4-difluoro-6-hydroxy-tetralin-1-yl]phenyl]-4-piperidyl]methyl]piperazin-1-yl]-1-oxo-isoindolin-2-yl]piperidine-2,6-dione]
≥ 10000 | O=C1CC[C@H](N2Cc3cc(N4CCN(CC5CCN(c6ccc([C@H]7c8ccc(O)cc8CC[C@H]7c7cccc8c7CCCC8)cc6)CC5)CC4)ccc3C2=O)C(=O)N1 (single isomer, unassigned) [Compound I-61]
1 | O=C1CC[C@H](N2Cc3cc(N4CCN(CC5CCN(c6ccc([C@H]7c8ccc(O)cc8CC[C@H]7c7ccc8c(c7)CCCC8)cc6)CC5)CC4)ccc3C2=O)C(=O)N1 (single isomer, unassigned) [Compound I-60]
2 | Cn1cc([C@H]2CCc3cc(O)ccc3[C@H]2c2ccc(N3CCC(CN4CCN(c5ccc6c(c5)CN([C@H]5CCC(=O)NC5=O)C6=O)CC4)CC3)cc2)cn1 [Compound I-30]
21 | CN(CC1CCN(c2ccc([C@@H]3c4ccc(O)cc4CC[C@@H]3c3ccccc3)cc2)CC1)C1CN(c2ccc3c(c2)CN(C2CCC(=O)NC2=O)C3=O)C1 (single isomer, unassigned) [II-9]
1.05 | O=C1CCC(N2Cc3cc(N4CCN(CC5CCN(c6ccc([C@@H]7c8ccc(O)cc8CC[C@@H]7c7ccc(F)cc7)cc6)CC5)CC4)ccc3C2=O)C(=O)N1 (stereo partly shown) [II-109]
≥ 10000 | CN(CC1CCN(c2ccc([C@H]3c4ccc(O)cc4CC[C@H]3c3ccccc3)cc2)CC1)C1CN(c2ccc3c(c2)CN(C2CCC(=O)NC2=O)C3=O)C1 (single isomer, unassigned) [II-14]
0.33 | O=C1CC[C@H](N2Cc3cc(N4CCN(CCCCCOc5ccc([C@@H]6c7ccc(O)cc7CC[C@@H]6c6ccccc6)cc5)CC4)ccc3C2=O)C(=O)N1 [II-66]
